pIC50: −log10 of the molar value.

The assay deals with r-NAAA (Rattus norvegicus (Rat), UniProt Q5KTC7). The assay is described as follows: r-NAAA inhibition, rat lung lysosomal NAAA preparation, UPLC/MS. It counts as biochemical. Particulars: for inhibition at 3 µM: read-out: r-NAAA % inhib. @ 3 μM. Here is the method:
Lysosomal NAAA protein preparation were obtained by homogenizing male Sprague-Dawley rat lungs (Charles River) in 20 mM Tris-HCl buffer pH 7.4 containing 0.32M sucrose. Samples were centrifuged at 800×g for 15 minutes at 4° C. Supernatants were then centrifuged at 12,000 g for 30 minutes at 4° C. Pellets were then resuspended in PBS pH 7.4 and subjected to a freeze/thaw cycle at −80° C. The suspension was finally centrifuged at 105,000×g for 1 hour at 4° C. The supernatant was then used in the enzymatic assay.
NAAA protein preparation was pre-incubated with various concentrations of test compounds or vehicle control in 100 mM NaH2PO4/Citrate buffer, 1% Triton-X, 3 mM DTT (pH 4.5) for 30 minutes at 37° C. Samples were then incubated with heptadecenoylethanolamide (50 μM, Avanti Polar Lipids) at 37° C. for 30 min. The reaction was terminated by addition of cold methanol containing heptadecanoic acid (NuCheck Prep) as internal standard. Samples were then analyzed by UPLC/MS (Acquity, Waters). Heptadecenoic and heptadecanoic acids were eluted on an Acquity UPLC BEH C18 column (50 mm length, 2.1 mm i.d., 1.7 μm pore size, Waters) isocratically at 0.5 mL/min for 1.5 min with a solvent mixture of 95% methanol and 5% water, both containing 0.25% Acetic Acid and 5 mM Ammonium Acetate. The column temperature was 40° C. Electrospray ionization was in the negative mode, capillary voltage was 0.5 kV, cone voltage was […], desolvation temperature was 500° C. N2 was used as drying gas at a flow rate of 1000 L/hour and a temperature of 500° C. The [M−H]^− ion was monitored in the selected-ion monitoring mode (m/z values: heptadecenoic acid 267.37, heptadecanoic acid 269.37). Calibration curves were generated using commercial heptadecenoic acid (NuCheck Prep). Inhibition of NAAA activity was calculated as reduction of heptadecenoic acid in the samples compared to vehicle controls. IC50 values were calculated by non-linear regression analysis of log [concentration]/inhibition curves using GraphPad Prism 5 (GraphPad Software Inc., CA—USA) applying a standard slope curve fitting.

Sequence of r-NAAA (Q5KTC7 34-362): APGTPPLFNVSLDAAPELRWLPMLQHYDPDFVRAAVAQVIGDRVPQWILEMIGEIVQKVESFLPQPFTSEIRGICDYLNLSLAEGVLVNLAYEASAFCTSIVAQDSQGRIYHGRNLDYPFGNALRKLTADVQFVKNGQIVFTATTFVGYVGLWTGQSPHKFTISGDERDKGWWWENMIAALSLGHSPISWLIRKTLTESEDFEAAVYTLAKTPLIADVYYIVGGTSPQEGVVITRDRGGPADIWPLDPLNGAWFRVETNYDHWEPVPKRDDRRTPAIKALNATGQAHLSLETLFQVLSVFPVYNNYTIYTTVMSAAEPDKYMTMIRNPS

`CC(C)C(CCCCc1ccccc1)OC(=O)N[C@H]1C(=O)O[C@H]1C` (mixture of isomers) [Example 28, [(1R) and (1S)-1-Isopropyl-5-phenyl-pentyl]-N-[(2S,3R)-2-methyl-4-oxo-oxetan-3-yl]-carbamate] gave a pIC50 of 7.00.

As to `C[C@@H]1OC(=O)[C@@H]1NC(=O)OC1CCC(Cc2ccccc2)CC1` (mixture of isomers) [Example 30, (1s,4S) and (1r, 4R)-(4-Benzylcyclohexyl)-N-[(2S,3R)-2-methyl-4-oxooxetan-3-yl]-carbamate], the pIC50 was 6.51. This pIC50 lies 0.49 log units lower than the previous one.

Turning to `CC[C@H]1OC(=O)[C@@H]1NC(=O)OCc1ccc(-c2ccccc2)cc1` (relative stereo) [Example 48, (4-Phenylphenyl)-methyl-N-[(2R*,3R*)-2-ethyl-4-oxo-oxetan-3-yl]-carbamate], the inhibition at 3 µM was determined as 100%.

As to `CC[C@@H]1OC(=O)[C@@H]1NC(=O)OCc1ccc(-c2ccccc2)cc1` (relative stereo) [Example 50, (4-Phenylphenyl)-methyl-N-[(2S*,3R*)-2-ethyl-4-oxo-oxetan-3-yl]-carbamate], the inhibition at 3 µM turned out to be 100%.

Regarding `CC(C)[C@H]1OC(=O)[C@@H]1NC(=O)OCCCCCc1ccccc1` (relative stereo) [Example 51, 5-Phenylpentyl-N-[(2R*,3R*)-2-isopropyl-4-oxo-oxetan-3-yl]-carbamate], the inhibition at 3 µM came out at 92%.

`CC(C)[C@H]1OC(=O)[C@@H]1NC(=O)OCc1ccc(-c2ccccc2)cc1` (relative stereo) [Example 52, (4-Phenylphenyl)-methyl-N-[(2R*,3R*)-2-isopropyl-4-oxo-oxetan-3-yl]-carbamate]: the inhibition at 3 µM was found to be 93%.

For the molecule `CC(C)[C@@H]1OC(=O)[C@@H]1NC(=O)OCCCCCc1ccccc1` (relative stereo) [Example 53, 5-Phenylpentyl-N-[(2S*,3R*)-2-isopropyl-4-oxo-oxetan-3-yl]-carbamate], the inhibition at 3 µM is 55%.

Take `CC(C)[C@@H]1OC(=O)[C@@H]1NC(=O)OCc1ccc(-c2ccccc2)cc1` (relative stereo) [Example 54, (4-Phenylphenyl)-methyl-N-[(2S*,3R*)-2-isopropyl-4-oxo-oxetan-3-yl]-carbamate]: the inhibition at 3 µM was 53%.

As to `CC(C)(C)[C@H]1OC(=O)[C@@H]1NC(=O)OCc1ccc(-c2ccccc2)cc1` (relative stereo) [Example 57, (4-Phenyl-phenyl)-methyl-N-[(2R*,3R*)-2-tert-butyl-4-oxo-oxetan-3-yl]-carbamate], the inhibition at 3 µM amounted to 73%.

Turning to `CC(C)(C)[C@@H]1OC(=O)[C@@H]1NC(=O)OCc1ccc(-c2ccccc2)cc1` (relative stereo) [Example 59, (4-Phenyl-phenyl)-methyl-N-[(2S*,3R*)-2-tert-butyl-4-oxo-oxetan-3-yl]-carbamate], the inhibition at 3 µM was 57%.

For the molecule `CCCCCOC(=O)N[C@H]1C(=O)O[C@H]1C` [Example 1, Pentyl-[(2S,3R)-2-methyl-4-oxooxetan-3-yl]-carbamate], the pIC50 is 6.17.

Molecule `Cc1ccc(CCOC(=O)N[C@H]2C(=O)O[C@H]2C)cc1` [Example 3, 2-(4-methylphenyl)ethyl-[(2S,3R)-2-methyl-4-oxooxetan-3-yl]-carbamate] had a pIC50 of 5.92.

As for `C[C@@H]1OC(=O)[C@@H]1NC(=O)OCCCc1ccccc1` [Example 4, 3-phenylpropyl-[(2S,3R)-2-methyl-4-oxooxetan-3-yl]-carbamate], the pIC50 is 7.08.

`C[C@@H]1OC(=O)[C@@H]1NC(=O)OC1CCN(C(=O)c2ccccc2)CC1` [Example 9, (1-benzoyl-4-piperidyl)-N-[(2S,3R)-2-methyl-4-oxo-oxetan-3-yl]-carbamate] showed a pIC50 of 5.88.

Regarding `C[C@@H]1OC(=O)[C@@H]1NC(=O)OC1(C)CCCCC1` [Example 10, (1-methylcyclohexyl)-[(2S,3R)-2-methyl-4-oxo-oxetan-3-yl]-carbamate], the pIC50 is 6.08.

In turn, `C[C@@H]1OC(=O)[C@@H]1NC(=O)OC1(C)CCOCC1` [Example 11, (4-methyltetrahydropyran-4-yl)-N-[(2S,3R)-2-methyl-4-oxo-oxetan-3-yl]-carbamate] gave a negative logarithm of the IC50 (pIC50) of 4.40.

For the molecule `CCC1OC(=O)C1NC(=O)OC(C)(C)C` (stereo not drawn) [Example 13, tert-Butyl-N-[(2S*,3R*)-2-ethyl-4-oxo-oxetan-3-yl]-carbamate and tert-Butyl-N-[(2S*,3S*)-2-ethyl-4-oxo-oxetan-3-yl]-carbamate], the inhibition at 3 µM is 48%.

Turning to `C[C@@H]1OC(=O)[C@@H]1NC(=O)OCc1cccc(-c2ccccc2)c1` [Example 14, (3-phenylphenyl)-methyl-N-[(2S,3R)-2-methyl-4-oxo-oxetan-3-yl]-carbamate], where the note is “read-out: r-NAAA % inhib. @ 10 μM”, the inhibition at 10 µM came to 28%.

The molecule `C[C@@H]1OC(=O)[C@@H]1NC(=O)OCCCCCCCc1ccccc1` [Example 16, 7-Phenylheptyl-N-[(2S,3R)-2-methyl-4-oxo-oxetan-3-yl]-carbamate] showed a pIC50 of 6.96.

With `C[C@@H]1OC(=O)[C@@H]1NC(=O)OC1CCN(Cc2ccccc2)CC1` [Example 21, (1-benzyl-4-piperidyl)-N-[(2S,3R)-2-methyl-4-oxo-oxetan-3-yl]-carbamate], the inhibition at 3 µM amounted to 21%.

`C[C@@H]1OC(=O)[C@@H]1NC(=O)OC1(C)CCCC1` [Example 23, (1-Methylcyclopentyl) N-[(2S,3R)-2-methyl-4-oxo-oxetan-3-yl]-carbamate] had a pIC50 of 5.91.

`CCCCC1(OC(=O)N[C@H]2C(=O)O[C@H]2C)COC1` [Example 24, (3-butyloxetan-3-yl)-N-[(2S,3R)-2-methyl-4-oxo-oxetan-3-yl]-carbamate] had a pIC50 of 5.42.

`C[C@@H]1OC(=O)[C@@H]1NC(=O)Oc1ccc(OCc2ccccc2)cc1` [Example 26, (4-benzyloxyphenyl)-N-[(2S,3R)-2-methyl-4-oxo-oxetan-3-yl]-carbamate] gave a pIC50 of 6.54. Compared with the last molecule, the pIC50 is 1.12 log units higher.

Take `C[C@@H]1OC(=O)[C@@H]1NC(=O)OC1CCC(=Cc2ccccc2)CC1` (stereo partly drawn) [Example 31, (R,Z) and (S,E)-(4-Benzylidenecyclohexyl)-N-[(2S,3R)-2-methyl-4-oxooxetan-3-yl]-carbamate]: the pIC50 is 6.12. Against the preceding molecule, the pIC50 is 0.42 log units lower.

`C[C@@H]1OC(=O)[C@@H]1NC(=O)OCCc1ccccc1` [Example 33, Phenethyl-N-[(2S,3R)-2-methyl-4-oxo-oxetan-3-yl]-carbamate] showed a pIC50 of 5.60.

Molecule `C[C@@H]1OC(=O)[C@@H]1NC(=O)OCCCCCCc1ccccc1` [Example 34, 6-Phenylhexyl-N-[(2S,3R)-2-methyl-4-oxo-oxetan-3-yl]-carbamate] showed a pIC50 of 5.93.

In turn, `C[C@@H]1OC(=O)[C@@H]1NC(=O)OCCOCCc1ccccc1` [Example 36, 2-Phenethyloxyethyl-N-[(2S,3R)-2-methyl-4-oxo-oxetan-3-yl]-carbamate] gave a pIC50 of 6.85. Against the preceding molecule, the pIC50 is 0.92 log units higher.

The molecule `C[C@H]1OC(=O)[C@H]1NC(=O)OCCCCCc1ccccc1` [Example 37, 5-Phenylpentyl-N-[(2R,3S)-2-methyl-4-oxo-oxetan-3-yl]-carbamate] showed a pIC50 of 5.45.

In turn, `C[C@H]1OC(=O)[C@@H]1NC(=O)OCCCCCc1ccccc1` [Example 38, 5-Phenylpentyl-N-[(2R,3R)-2-methyl-4-oxo-oxetan-3-yl]-carbamate] had a pIC50 of 7.74.

With `CCCCCCOC(=O)N[C@H]1C(=O)O[C@H]1C` [Example 39, Hexyl-N-[(2S,3R)-2-methyl-4-oxo-oxetan-3-yl]-carbamate], the pIC50 was 6.57.

`CCCCCCCOC(=O)N[C@H]1C(=O)O[C@H]1C` [Example 40, Heptyl-N-[(2S,3R)-2-methyl-4-oxo-oxetan-3-yl]-carbamate] had a pIC50 of 7.40.

With `C[C@@H]1OC(=O)[C@@H]1N(C)C(=O)OCCCCCc1ccccc1` [Example 41, 5-Phenylpentyl-N-methyl-N-[(2S,3R)-2-methyl-4-oxo-oxetan-3-yl]-carbamate], the “r-NAAA IC50 (μM) or % inhib. (result in words)” value was “No inhib”.
